This assay addresses Hepatic lipase (Mouse). Briefly: Inhibition of hepatic lipase in endothelial lipase knock-out mouse plasma using D31-POPC-HDL as substrate incubated for 2 hrs by LC/MS analysis.

Structures are written as SMILES. pIC50: −log10 of the molar value.

As a reminder, the pIC50 is the IC50 on a negative log10 scale, so that one unit is a factor of ten. High values mean a low IC50, low ones a high IC50. The compound `COCCS(=O)(=O)C(C(=O)NCC(=O)NC1CC1)c1nc2ccc(-c3ccc(F)nc3)cc2s1` (stereo unspecified) had a negative-log IC50 (pIC50) of 4.59.

These data come from BindingDB's records for doi:10.1016/j.bmcl.2019.05.048 (Bristol-Myers Squibb, 2019).
